According to ChEMBL document CHEMBL5226302, “Small-Molecule Inhibitors Targeting the Canonical WNT Signaling Pathway for the Treatment of Cancer” (J Med Chem, 2021):
In brackets after ≈: the same amount, converted by molar mass. Values belong to the molecule of their own block, whether it stands above or below them.

Experiments:
[1] = Solubility of the compound at pH 7.4; assay type: physicochemical; conditions: buffer
[2] = Oral bioavailability in mouse at 2.5 mg/kg; assay type: ADME, organism-based; conditions: in vivo
[3] = Efflux ratio of apparent permeability in human Caco-2 cells; assay type: ADME, cell-based
[4] = Oral bioavailability in rat at 30 mg/kg; assay type: ADME, organism-based; conditions: in vivo
[5] = system: COLO 320; assay: Antitumor activity against human COLO 320 cells xenografted mouse model assessed as tumor growth inhibition at 300 mg/kg relative to control; assay type: functional; conditions: read-out: TGI
[6] = Solubility of compound at pH 7.4; assay type: physicochemical; conditions: buffer
[7] = Inhibition of Wnt pathway (unknown origin); set-up: species or system Homo sapiens
[8] = Oral bioavailability in mouse; assay type: ADME, organism-based; conditions: in vivo
[9] = Oral bioavailability in rat at 2 mg/kg; assay type: ADME, organism-based; conditions: in vivo
[10] = Oral bioavailability in dog; assay type: ADME, organism-based, Canis lupus familiaris; conditions: in vivo
[11] = In vivo inhibition of MMTV-WNT1 in mouse model assessed as reduction in tumor growth at 0.3 mg/kg, po administered once daily for 2 weeks; assay type: functional; conditions: 336 h
[12] = In vivo inhibition of MMTV-WNT1 in mouse model assessed as reduction in tumor growth at 1 mg/kg, po administered once daily for 2 weeks; assay type: functional; conditions: 336 h
[13] = In vivo inhibition of MMTV-WNT1 in mouse model assessed as reduction in tumor growth at 3 mg/kg, po administered once daily for 2 weeks; assay type: functional; conditions: 336 h
[14] = cells; conditions: Homo sapiens, COLO 320DM
[15] = target: T1, Poly [ADP-ribose] polymerase tankyrase-2 (Homo sapiens, UniProt Q9H2K2); assay: Binding affinity to TNKS2 (unknown origin) assessed as inhibition constant
T1 sequence (Q9H2K2 whole entry): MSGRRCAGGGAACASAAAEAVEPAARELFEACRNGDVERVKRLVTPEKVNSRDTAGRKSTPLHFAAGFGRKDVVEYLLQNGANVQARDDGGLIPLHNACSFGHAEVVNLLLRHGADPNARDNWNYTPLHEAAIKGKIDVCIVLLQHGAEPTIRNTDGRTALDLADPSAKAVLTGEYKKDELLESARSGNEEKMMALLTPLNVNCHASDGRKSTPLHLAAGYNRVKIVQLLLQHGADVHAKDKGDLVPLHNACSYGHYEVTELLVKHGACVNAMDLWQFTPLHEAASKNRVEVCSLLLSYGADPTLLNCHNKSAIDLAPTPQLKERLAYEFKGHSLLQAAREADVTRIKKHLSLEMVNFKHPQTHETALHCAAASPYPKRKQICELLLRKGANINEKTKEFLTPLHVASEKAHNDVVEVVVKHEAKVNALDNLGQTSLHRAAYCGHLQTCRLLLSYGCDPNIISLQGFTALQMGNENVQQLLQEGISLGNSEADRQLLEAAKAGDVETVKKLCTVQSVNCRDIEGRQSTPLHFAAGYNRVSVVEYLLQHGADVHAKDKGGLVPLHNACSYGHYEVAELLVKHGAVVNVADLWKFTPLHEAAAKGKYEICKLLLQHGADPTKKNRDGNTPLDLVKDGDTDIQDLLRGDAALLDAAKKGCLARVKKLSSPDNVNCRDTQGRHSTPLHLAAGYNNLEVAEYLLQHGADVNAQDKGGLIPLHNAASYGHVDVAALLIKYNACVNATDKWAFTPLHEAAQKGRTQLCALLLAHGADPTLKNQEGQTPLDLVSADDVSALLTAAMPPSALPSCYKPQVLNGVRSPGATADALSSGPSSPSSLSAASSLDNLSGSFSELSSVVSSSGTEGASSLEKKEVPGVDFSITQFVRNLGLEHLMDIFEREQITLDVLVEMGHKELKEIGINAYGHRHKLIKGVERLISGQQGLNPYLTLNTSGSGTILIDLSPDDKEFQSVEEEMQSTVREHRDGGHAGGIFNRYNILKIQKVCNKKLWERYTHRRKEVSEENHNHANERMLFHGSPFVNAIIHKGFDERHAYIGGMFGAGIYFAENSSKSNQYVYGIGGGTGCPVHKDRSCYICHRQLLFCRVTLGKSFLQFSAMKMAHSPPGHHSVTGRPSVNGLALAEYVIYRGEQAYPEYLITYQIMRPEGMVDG

[16] = target: T1, Poly [ADP-ribose] polymerase tankyrase-2; assay: Binding affinity to human TNKS2 ARC4 assessed as dissociation constant
[17] = Inhibition of TBC (unknown origin); set-up: species or system Homo sapiens
[18] = Half life of compound in PBS buffer; assay type: physicochemical
[19] = Oral bioavailability in rat at 5 mg/kg; assay type: ADME, organism-based; conditions: in vivo
[20] = system: MG-63; assay: Antitumor activity against human MG-63 cells xenografted in osteosarcoma mouse model assessed as tumor growth inhibition at 5 mg/kg relative to control; assay type: functional; conditions: read-out: TGI
[21] = Oral bioavailability in mouse at 10 mg/kg; assay type: ADME, organism-based; conditions: in vivo
[22] = system: HEK293; assay: Antitumor activity against human HEK293 cells xenografted in […] assessed as tumor growth inhibition at 10 mg/kg relative to control; assay type: functional; conditions: read-out: TGI
[23] = In vivo inhibition of WNT1 in mouse model assessed as reduction in tumor volume by measuring T/C ratio at 1 mg/kg; assay type: functional
[24] = In vivo inhibition of WNT1 in mouse model assessed as reduction in tumor volume by measuring T/C ratio at 3 mg/kg; assay type: functional

solubility [1]: < 1 µg/mL | bioavailability [2]: < 1%
SMILES: O=C(COc1ccc(-n2ccnc2)cc1)Nc1ccc(-c2ccccc2)cc1

efflux ratio [3]: 2.7
SMILES: Cc1cc(N2C[C@@H](C)N[C@@H](C)C2)ncc1-c1ccc(-c2nc3c(ccn3C)c(=O)[nH]2)cc1

bioavailability [4]: 60%
SMILES: O=c1[nH]c(N2CCC3(CC2)CN(CCO)c2cc(F)cc(F)c23)nc2c1CCCC2
inhibition in vivo at 300 mg/kg [5]: 52%

solubility [6]: 72 µg/mL (≈ 211 µM)
SMILES: COc1ccccc1N1CCN(c2nc3c(c(=O)[nH]2)CCCC3)CC1

IC50 [7]: 12 nM
SMILES: CCCn1c(SCC(=O)Nc2nc3ccc(OC)cc3s2)nnc1-c1ccncc1

IC50 [7]: 0.8 nM | bioavailability [8]: 72% | bioavailability [9]: 72% | bioavailability [10]: 96%
SMILES: CC(=O)N1CCN(c2ccc(NC(=O)Cc3cnc(-c4ccnc(F)c4)c(C)c3)nc2)CC1
inhibition in vivo at 0.3 mg/kg [11]: 15% | inhibition in vivo at 1 mg/kg [12]: 74% | inhibition in vivo at 3 mg/kg [13]: 84%

IC50 [14]: 2000 nM
SMILES: NS(=O)(=O)c1ccc(NC(=S)N2CCN(C/C=C/c3ccccc3)CC2)cc1

Ki [15]: 27900 nM
SMILES: CCc1ccc(OCC(=O)Nc2sc(C)c(C)c2C(N)=O)c(F)c1

SMILES: CC(=O)N[C@@H](CCCNC(=N)N)C(=O)N[C@@H](CCC(=O)O)C(=O)N[C@H]1CCCCn2cc(nn2)CCCCCc2cn(nn2)CCCC[C@H](C(=O)N[C@H](CCC(=O)O)C(N)=O)NC(=O)CNC(=O)[C@@H](CC(=O)O)NC(=O)CNC1=O
Kd [16]: 2800 nM

IC50 [7]: 0.5 nM
SMILES: Cc1cc(-c2ccc(CNC(=O)c3ccc4c(c3)[nH]c3ccccc34)cc2F)ccn1

IC50 [17]: 1.9 nM | half-life [18]: 2.8 h
SMILES: N#Cc1ccc(Oc2ccc(NC(=O)CCSc3nc4ccccc4c(=O)[nH]3)cc2)cc1

IC50 [7]: 58 nM
SMILES: COc1ccc(-n2c(C(=O)NCC(=O)Nc3nc4ccc(OC)cc4s3)nc3ccccc3c2=O)cc1

Kd [16]: 440 nM
SMILES: CN(C)c1ccc2c(-c3ccc(C(=O)NCCCCCC(=O)N[C@@H](CCCNC(=N)N)C(=O)N[C@@H](CCC(=O)O)C(=O)N[C@H]4CCn5cc(nn5)-c5cc(C(=O)O)cc(c5)C5=CN(CC[C@@H](C(=O)N[C@@H](CCC(=O)O)C(N)=O)NC(=O)CNC(=O)[C@H](CC(=O)O)NC(=O)CNC4=O)NN5)cc3C(=O)[O-])c3ccc(=[N+](C)C)cc-3oc2c1

bioavailability [19]: 18%
SMILES: COCCNc1cc(C)c(-c2ccc(-c3nc4c(CO)cccc4c(=O)[nH]3)cc2)cn1

SMILES: O=C(Nc1cccc2cccnc12)c1ccc(N2C(=O)[C@@H]3[C@H](C2=O)[C@@H]2C=C[C@H]3C2)cc1
inhibition in vivo at 5 mg/kg [20]: 71%

bioavailability [21]: 100%
SMILES: Cn1c(=O)c2c(ncn2CC(=O)Nc2ccc(-c3ccccc3)nn2)n(C)c1=O [ETC-159]
inhibition in vivo at 10 mg/kg [22]: 94%

IC50 [7]: 1 nM
SMILES: Cc1cc(-c2ncc(CC(=O)Nc3ccc(-c4cnccn4)cn3)cc2C)ccn1 [WNT-974]
inhibition in vivo at 1 mg/kg [23]: 47% | inhibition in vivo at 3 mg/kg [24]: 63%
